Earlier results, collected in patent EP3072529B1, “COMPOSITION COMPRISING VEMURAFENIB AND HPMC-AS” (ratiopharm GmbH, priority 2015, dated 2016).

Conditions: reported

solubility in aqueous and physiological solvents: practically insoluble
Compound: CCCS(=O)(=O)Nc1ccc(F)c(C(=O)c2c[nH]c3ncc(-c4ccc(Cl)cc4)cc23)c1F [Vemurafenib base, propane-1-sulfonic acid {3-[5-(4-chlorophenyl)-1H-pyrrolo[2,3-b]pyridine-3-carbonyl]-2,4-difluorophenyl}-amide]
